According to patent US20040167217A1, “Neuroprotective effects of polyphenolic compounds” (priority 2003, published 2004):

Key:
Type in all cases: cell-based, rat
HO-1 mRNA = HO-1 mRNA expression, semi-quantitative RT-PCR, cortical neurons
Procedure: A semi-quantitative RT-PCR was performed to investigate the activity of curcumin on HO-1 mRNA expression, using specific HO-1 primers (FIG. 8) that generated a 123 bp product. […] The HO-2 primers generated a 331-bp PCR product. […] In order to test the effects of polyphenolic compounds, or analogs thereof, on heme oxygenase activity, curcumin and CAPE were added to cortical neurons for analysis. Heme oxygenase activities resulting from curcumin and CAPE treatment are shown in FIGS. 7A and 9A, respectively. Neuroprotective protein expression is observed in FIGS. 7B-C and 9B. The activity of curcumin on HO-1 mRNA expression may be measured to ensure that heme oxygenase activity correlates with mRNA expression (FIG. 8). Semi-quantitative reverse transcriptase-polymerase chain reaction using HO-1 and HO-2 (control) forward and reverse primers are as follows: […]

heme oxygenase = assay: Heme oxygenase activity assay in cortical neurons
Procedure: The ability of curcumin to interact with the heme oxygenase (HO) pathway in primary cortical neurons was tested. Cells were exposed to various concentrations of curcumin (1-100 μM) and heme oxygenase activity. HO-1 mRNA and protein expression were determined at different times after treatment. N-acetyl cysteine (NAC; 1 mM), a precursor of glutathione and a sulphydril donor with potent anti-oxidant properties, was also used to examine whether changes in heme oxygenase activity by curcumin are mediated by pro-oxidant mechanisms. Heme oxygenase activity assays were performed using a modified methodology previously described by […], et al.^15 Cells were washed with PBS, scraped off their plates, separated by centrifugation, and resuspended in a solution containing 100 mM PBS and 2mM MgCl2, freeze/thawed three times, and finally sonicated. The supernatant was added to a reaction mixture containing nicotinamide adenine dinucleotide phosphate (NADPH) (0.8 mM), glucose 6-phosphate (2 mM), glucose-6-phosphate dehydrogenase (0.2 units), 3 mg of rat liver cytosol prepared from a 105,000×g supernatant fraction as a source of biliverdin reductase, potassium phosphate buffer (PBS, 100 mM, pH 7.4), MgCl2 (0.2 mM), and hemin (20 μM). The reaction was conducted at 37° C. in the dark for 1 h and terminated by the addition of 1 ml of chloroform. The amount of extracted bilirubin was calculated by the difference in absorbance between 464 nm and 530 nm (ε=40 mM^-1 cm^-1). Heme oxygenase activity was expressed as picomoles of bilirubin/mg of cell protein/h. The total protein content of confluent cells was determined using a Bio-Rad DC protein assay (Bio-Rad; Herts, UK) by comparison with a standard curve obtained with bovine serum albumin.

hsp70 = hsp70 protein expression, Western blot, cortical neurons
Procedure: HO-1 and hsp70 protein levels were assessed by Western immunoblot technique using a polyclonal rabbit anti-HO-1 antibody (Stressgen; Victoria, Canada), and a polyclonal rabbit hsp70 antibody. Briefly, an equal amount of proteins (30 μg) for each sample was separated by SDS-polyacrylamide gel electrophoresis and transferred to nitrocellulose membranes, and the non-specific antibodies were blocked with 3% non-fat dried milk in PBS. Membranes were then probed with a polyclonal rabbit anti HO-1 antibody (Stressgen) (1:1000 dilution in Tris-buffered saline, pH 7,4) or with a monoclonal rabbit anti-Hsp72 antibody (Amersham Pharmacia Biotechnology) (1:1000 dilution in Tris-buffered saline, pH 7,4), that recognizes only the Hsp 70 inducible isoform. Blots were then visualized using an amplified alkaline phosphate kit from Sigma.

## COc1cc(C=CC(=O)CC(=O)C=Cc2ccc(O)c(OC)c2)ccc1O [curcumin, 1,7-bis[4-Hydroxy-3-methoxyphenyl]-1,6-heptadiene-3,5-dione]
HO-1 mRNA
  HO-1 mRNA expression: dose-dependent over-expression of HO-1 mRNA
Heme oxygenase; 25 μM, 6h
  maximal heme oxygenase activity, increase over control: 10 fold
Heme oxygenase; 50 μM
  heme oxygenase activity: gradually decreased to those of control values
Heme oxygenase; 1-50 μM, 6h
  heme oxygenase activity: concentration-dependent increase in heme oxygenase activity
Heme oxygenase; 24h exposure
  dose-dependent induction of heme oxygenase activity: maintained after 24h exposure
hsp70
  hsp70 protein expression: induced hsp70 protein expression
